Columns and labels:
Details in all cases: 72 h
[1] = test system: Vero E6; assay: drug sensitivity score (DSS) for viability; higher = more toxic; extreme values may be limits of the assay
[2] = test system: U2OS; assay: as above
[3] = test system: Calu-3; assay: as above
[4] = test system: Caco-2; assay: as above
[5] = test system: HepG2; assay: as above
[6] = test system: Vero E6; assay: cell viability relative to DMSO; higher = less toxic
[7] = test system: U2OS; assay: as above
[8] = test system: Calu-3; assay: as above
[9] = test system: Caco-2; assay: as above
[10] = test system: HepG2; assay: as above
[11] = test system: Vero E6; assay: relative viability EC50 (midpoint between 100% and the lowest measured viability); higher = less toxic
[12] = test system: U2OS; assay: as above
[13] = test system: Calu-3; assay: as above
[14] = test system: Caco-2; assay: as above
[15] = test system: HepG2; assay: as above

SMILES | drug sensitivity score [1] | drug sensitivity score [2] | drug sensitivity score [3] | drug sensitivity score [4] | drug sensitivity score [5] | cell viability ([6]; 1 nM) | cell viability ([6]; 10 nM) | cell viability ([6]; 100 nM) | cell viability ([6]; 1000 nM) | cell viability ([6]; 10000 nM) | cell viability ([7]; 1 nM) | cell viability ([7]; 10 nM) | cell viability ([7]; 100 nM) | cell viability ([7]; 1000 nM) | cell viability ([7]; 10000 nM) | cell viability ([8]; 1 nM) | cell viability ([8]; 10 nM) | cell viability ([8]; 100 nM) | cell viability ([8]; 1000 nM) | cell viability ([8]; 10000 nM) | cell viability ([9]; 1 nM) | cell viability ([9]; 10 nM) | cell viability ([9]; 100 nM) | cell viability ([9]; 1000 nM) | cell viability ([9]; 10000 nM) | cell viability ([10]; 1 nM) | cell viability ([10]; 10 nM) | cell viability ([10]; 100 nM) | cell viability ([10]; 1000 nM) | cell viability ([10]; 10000 nM) | relative viability EC50 [11] | relative viability EC50 [12] | relative viability EC50 [13] | relative viability EC50 [14] | relative viability EC50 [15]
C[N+]1(C)CCC(OC(=O)C(O)(c2ccccc2)C2CCCC2)C1 (stereo not given) [glycopyrrolate] | 0 | 0 | 0 | 0 | 0 | 106% | 100% | 100% | 99.7% | 98.3% | 101% | 102% | 98% | 99.5% | 95.1% | 102% | 105% | 97.7% | 102% | 98.5% | 104% | 98.6% | 94.8% | 103% | 96% | 108% | 99.3% | 97.4% | 92.3% | 105% | > 10 µM | > 10 µM | > 10 µM | > 10 µM | > 10 µM
CN(C)CCCN1c2ccccc2CCc2ccccc21 [imipramine] | 0 | 0 | 0 | – | 0 | 100% | 98.7% | 99.4% | 96.6% | 98.5% | 101% | 103% | 96% | 102% | 90.4% | 88.8% | 105% | 96.1% | 108% | 94.3% | – | – | – | – | – | 95.9% | 102% | 104% | 95.3% | 98.1% | > 10 µM | > 10 µM | > 10 µM | – | > 10 µM
O=c1cccc2n1C[C@H]1C[C@@H]2CN(CCN2C[C@@H]3C[C@H](C2)c2cccc(=O)n2C3)C1 [CC4] | 0 | – | 0 | 0 | 0 | 97.4% | 94.6% | 98.8% | 92.8% | 101% | – | – | – | – | – | 87.1% | 104% | 101% | 119% | 104% | 98.2% | 100% | 91.4% | 93.1% | 98.3% | 91.3% | 91.9% | 93.9% | 97.4% | 93.4% | > 10 µM | – | > 10 µM | > 10 µM | > 10 µM
c1cc(-c2cnn3cc(-c4ccc(OCCN5CCCCC5)cc4)cnc23)ccn1 [dorsomorphin] | 5.5 | 6 | 2.9 | 3 | 6 | 98.5% | 94.5% | 102% | 96.8% | 9.1% | 102% | 104% | 95.9% | 91.4% | 16.7% | 102% | 95.6% | 99.4% | 98.9% | 47.4% | 96.8% | 96.6% | 89.4% | 95.1% | 56.5% | 103% | 103% | 90.5% | 93.1% | 11.6% | 2.9 µM | 2.31 µM | 3.02 µM | – | 2.52 µM

Source: the supplement of paper PMC13380429
